Laboratory results reported in article PMC12563652 (International Journal of Molecular Sciences, 2025).
Where two headings read alike, the source gives them in different places.

Legend:
α2-adrenoceptor = assay: Competitive radioligand binding, [3H]clonidine, rat cerebral cortex; settings: n.a. = no activity at 10–5 M
Protocol: The competitive radioligand-binding assay assessed affinity for α1- and α2-adrenoceptors. Experiments were carried out in the rat cerebral cortex. […] The membrane preparation and assay technique followed the previously reported protocol [10]. Radioactivity was measured using the MicroBeta2 scintillation counter (PerkinElmer, Kraków, Poland). The data was adjusted to match a single-site curve-fitting formula using Prism 8 (GraphPad Software, La Jolla, CA, USA), and the Ki values were estimated by means of the Cheng–Prusoff formula.

C57BL/6 mice = assay: Inhibition of gastric emptying (mouse model, phenol red); type: in vivo
Protocol: Fifty male C57BL/6 mice (22–27 g) were housed in standard cages while maintaining a 12:12-h light/dark cycle, with food and water available ad libitum. The experimental procedures were performed from 10:00 a.m. to 14:00 p.m.
The experiment was conducted according to Miyasaka et al. and Kotańska et al., with some minor modifications. Mice were subjected to a 20 h food deprivation and a 2 h water deprivation prior to testing. The animals received a vehicle (0.25 mL/mouse) alone or along with various compounds: JP-14 (10 mg/kg b. w.), RT (5 mg/kg body weight), metformin (100 mg/kg b. w.), or loperamide (reference compound; 10 mg/kg b. w.) via gastric gavage. Following a 45 min interval, phenol red (0.5 mL, 0.05% w/v) combined with glucose (1 g/kg body weight) was administered through the same route. Additionally, each group received an intraperitoneal injection of heparin (2500 U/mouse) 20 min prior to the collection of stomach contents. Seven mice treated with the vehicle were sacrificed immediately after the phenol red administration to serve as a standard control (representing 100% phenol red in the stomach at 0 min), establishing a baseline for maximum absorbance (100%). The leftover mice were sacrificed 30 min later. The stomachs were removed and homogenized using an OMNI homogenizer (OMNI International Company, Kennesaw, GA, USA), with 10 mL of 0.1 N NaOH. To 5 mL of homogenate, 0.5 mL of 20% w/v solution of trichloroacetic acid was incorporated to precipitate the proteins. Subsequently, the samples were centrifuged at 600× g for 15 min at a temperature of 20 °C, and 0.25 mL of supernatant was mixed with 1 mL of 0.5 N NaOH to achieve maximum color intensity. The concentration of phenol red was measured using spectrophotometry, with absorbance evaluated at a wavelength of 560 nm (MuLTISKAN.GO, Thermo Fisher Scientific Inc., Waltham, MA USA). For each mouse, the percentage of gastric emptying (GE %) was calculated using the following equation:(1) GE%=(Ac0−Ab)/(Ac0−Ac30)×100% where: Ac0 is the absorbance of the control gastric sample collected immediately after dye administration, and Ac30 is the absorbance of the control gastric sample collected 30 min after dye administration, i.e., Ac0–Ac30 = 100% gastric emptying.

HepG2 cells = assay: Glucose consumption (Amplex Red assay) in HepG2 cells; type: cell-based, human; settings: for increase in glucose consumption (uptake): relative to vehicle-treated cells
Protocol: The HepG2 human hepatocellular carcinoma cell line (ATCC® HB-8065™) was cultured in DMEM supplemented with 10% FBS, 100 µg/mL streptomycin, and 100 IU/mL penicillin at 37 °C in 5% CO2. Cells were seeded in 96-well plates at a density of 10,000 cells/well and used for experiments 24 h after plating.
Stock solutions of test compounds were prepared at a concentration of 10 mM in dimethyl sulfoxide (DMSO). At least 1 mg of each substance was carefully measured and mixed with the right amount of DMSO. A series of dilutions were made in DMSO and then further diluted in phosphate-buffered saline before being introduced into the cell culture medium. Precipitation or opalescence was assessed prior to application.
The glucose uptake was measured with the Amplex® Red Glucose/Glucose Oxidase Assay Kit from Thermo Fisher Scientific, following the guidelines provided by the maker. Cell culture supernatants were collected and incubated with a reaction mix containing 100 μM Amplex® Red reagent, 0.2 U/mL horseradish peroxidase (HRP), and 1 U/mL glucose oxidase at room temperature for 30 min in the dark. Fluorescence was measured at 530 nm excitation and 590 nm emission using the POLARstar Omega plate reader (BMG Labtech).

3T3-L1 cells = assay: Lipid accumulation (AdipoRed assay) in 3T3-L1 cells; type: cell-based, mouse; settings: for lipid accumulation (intracellular lipid content), reduction: 10 µM, compared to vehicle-treated controls
Protocol: (§1) The 3T3-L1 mouse embryonic fibroblast cell line (ATCC CRL-11605) was cultured according to the standard protocol in Dulbecco’s Modified Eagle Medium (DMEM) supplemented with 10% bovine calf serum, 100 µg/mL streptomycin, and 100 IU/mL penicillin, at 37 °C in a humidified atmosphere containing 5% CO2. Cells were seeded at a density of 10,000 cells/well in collagen type I–coated (10 µg/mL) 96-well plates and allowed to attach for 24 h. Differentiation was initiated by replacing the medium with induction medium composed of DMEM, 0.5 mM 3-isobutyl-1-methylxanthine (IBMX), 1 µM dexamethasone, and 10% fetal bovine serum (FBS). After 48 h (differentiation day 2), the medium was replaced with DMEM supplemented with 10% FBS and 10 µg/mL human recombinant insulin. After an additional 24 h, the medium was replaced with DMEM supplemented with 10% bovine calf serum, 100 µg/mL streptomycin, and 100 IU/mL penicillin. The medium was refreshed every 24 h for 10 consecutive days to allow full differentiation into adipocytes.
On day 10 of differentiation, cells were treated with test compounds for 24 h. To investigate the involvement of the TAAR1 receptor, cells were pre-treated for 15 min with the selective TAAR1 antagonist RTI-7470-44 (40 nM) before compound exposure. After incubation, the culture medium was removed, and wells were gently rinsed with 200 µL PBS and refilled with 200 µL PBS. AdipoRed reagent (5 µL; Lonza) was added to each well, mixed, and incubated at room temperature for 10 min. Fluorescence was measured using the POLARstar Omega plate reader (excitation 485 nm, emission 535 nm).

[1] = system: multiple species TAAR1 (mouse, rat, and human); design: method as in PMID 31848873; settings: heterologous cell lines; cited from earlier work
HEPG2 cell line [2] = assay: Cell viability assay (PrestoBlue, metabolic function), HepG2; type: cell-based, human; settings: 24 h, mean
Protocol: (§2) Prior to investigating the biological activity and molecular characteristics of the test compounds in vitro, a comprehensive cytotoxicity screening was performed using HepG2 and 3T3-L1 cell lines. Two complementary assays were applied: one based on the quantification of adenylate kinase release as an indicator of cell membrane damage, and another relying on resazurin reduction to assess cellular metabolic activity. These complementary assays enable sensitive and reliable detection of cytotoxic effects across diverse cell types. This preliminary assessment was carried out to ensure that subsequent functional analyses would not be confounded by nonspecific cytotoxic effects.
(§3) Cell viability was measured using PrestoBlue reagent (Thermo Fisher Scientific, Waltham, MA, USA), following the manufacturer’s instructions. After 24 h of compound treatment, PrestoBlue reagent was added to each well at 10% of the remaining medium volume. The plate was incubated at 37 °C for 15 min, and fluorescence was measured using the POLARstar Omega plate reader (excitation 530 nm, emission 580 nm). Results were expressed as a percentage of viable cells relative to the DMSO-treated control.

3T3-L1 adipocytes [3] = assay: Steatosis, HCS LipidTOX imaging in 3T3-L1 adipocytes; type: cell-based, mouse
Protocol: as §1
(§4) Lipid accumulation and phospholipidosis were evaluated using the HCS LipidTOX Phospholipidosis and Steatosis Detection Kit (Thermo Fisher Scientific). Cells were cultured in black, clear-bottom 96-well plates and treated as described. Next, cells were fixed with 4% paraformaldehyde (15 min), washed with PBS, and stained with LipidTOX Green Neutral Lipid Stain (for steatosis) and LipidTOX Red Phospholipidosis Detection Reagent, prepared according to the manufacturer’s instructions. Nuclei were counterstained with Hoechst 33342 (2 µg/mL). Image acquisition and quantitative analysis were performed using High Content Screening (HCS) technology on the ImageXpress XLS system (Molecular Devices). Lipid droplet and phospholipid content were quantified using automated image analysis pipelines.

3T3-L1 adipocytes [4] = assay: Phospholipidosis, HCS LipidTOX imaging in 3T3-L1 adipocytes; type: cell-based, mouse
Protocol: as §1, §4

HEPG2 cell line [5] = type: cell-based; settings: human, 24 h
Protocol: as §2
(§5) The damage of cell membrane was evaluated with the ToxiLight BioAssay Kit from Lonza (Visp, Switzerland). This test is very sensitive and measures cell damage by looking at the release of adenylate kinase (AK). After 24 h of treatment, 5 µL of culture supernatant was transferred to a 384-well white plate (PerkinElmer, Singapore), followed by the addition of 20 µL of Adenylate Kinase Detection Reagent (AKDR). After a 10 min incubation at room temperature, luminescence was measured using the POLARstar Omega plate reader (BMG Labtech, Ortenberg, Germany). Results were expressed as a percentage relative to a lysed control (100% cell death).

3T3L1 cell line = type: cell-based; settings: mouse, 24 h
Protocol: as §2, §5

3T3-L1 cell line = assay: Cell viability assay (PrestoBlue, metabolic function), 3T3-L1; type: cell-based, mouse; settings: 24 h, mean
Protocol: as §2, §3

human TAAR1 = target: T1, human TAAR1 (Homo sapiens, UniProt Q96RJ0); assay: TAAR1 agonist activity, Hit Hunter cAMP assay; type: cell-based; settings: cAMP accumulation; n.a. = no activity at 10–5 M; read-out: TAAR1 Ago EC50
T1 sequence (Q96RJ0 1-339): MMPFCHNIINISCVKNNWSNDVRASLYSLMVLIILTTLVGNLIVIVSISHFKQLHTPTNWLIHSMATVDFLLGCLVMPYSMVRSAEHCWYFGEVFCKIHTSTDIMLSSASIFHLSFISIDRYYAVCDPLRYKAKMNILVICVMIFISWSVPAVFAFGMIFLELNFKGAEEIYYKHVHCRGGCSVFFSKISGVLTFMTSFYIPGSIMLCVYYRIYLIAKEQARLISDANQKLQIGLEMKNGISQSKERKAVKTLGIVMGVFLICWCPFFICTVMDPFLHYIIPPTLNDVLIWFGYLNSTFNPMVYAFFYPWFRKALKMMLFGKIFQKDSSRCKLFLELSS
Protocol: The intrinsic activity of the TAAR1 receptor will be assessed according to the manufacturer’s protocol, using the Hit Hunter® cAMP assay by DiscoverX. This assay enables monitoring of GPCR activation in cells stably expressing TAAR1 by measuring changes in the level of the secondary messenger, cAMP. The cAMP Hunter cell lines were cultured from frozen stocks following standard procedures. Cells were plated in white-walled 384-well microplates at a total volume of 20 µL per well and incubated at 37 °C for the required period before analysis. To assess agonist activity, cells were exposed to the test compound to trigger a response. The culture medium was then removed and replaced with 15 µL of a 2:1 mixture of HBSS and 10 mM Hepes containing the cAMP XS+ antibody reagent. Sample stocks were diluted to prepare a 4× concentration in assay buffer. Subsequently, 5 µL of the 4× sample was added to each well, and the plates were incubated at either 37 °C or room temperature for 30 or 60 min. The vehicle was used at a concentration of 1%. After incubating the compounds for the required time, the assay signal was produced by adding 20 µL of the cAMP XS+ ED/CL lysis cocktail and incubating for one hour. This was followed by a three-hour incubation with 20 µL of the cAMP XS+EA reagent at room temperature. After signal development, the microplates were read using a PerkinElmer Envision Reader to detect chemiluminescence.

N#Cc1cc(/C=N/NC(=N)N)ccc1F
Ki (α2-adrenoceptor): 0.996 µM

COc1ccc(/C=N/NC(=N)N)cc1 [4 (JP06)]
Ki (α2-adrenoceptor): 1.07 ± 0.078 µM

CN(C)C(=N)N=C(N)N [Metformin, metformin]
inhibitory effect on gastric emptying (C57BL/6 mice; 100 mg/kg b.w.): about 30% | increase in glucose consumption (uptake) (HepG2 cells; 100 µM): 36%

CN(CCOc1ccc(CC2SC(=O)NC2=O)cc1)c1ccccn1 (stereo not drawn) [Rosiglitazone, rosiglitazone]
lipid accumulation, reduction (3T3-L1 cells; 100 µM, relative to vehicle-treated cells): 90%

CN(C)C(=O)C(CCN1CCC(O)(c2ccc(Cl)cc2)CC1)(c1ccccc1)c1ccccc1 [loperamide]
percentage inhibition of gastric emptying (C57BL/6 mice; intragastric, 10 mg/kg b.w.): about 55%

Clc1cccc(N2CCNCC2)c1 [mCPP, meta-chlorophenylpiperazine]
increase in glucose consumption (uptake) (HepG2 cells; 10 µM): no significant changes | lipid accumulation (intracellular lipid content), reduction (3T3-L1 cells): significantly increased lipid accumulation

NCC(O)c1ccc(O)cc1 (stereo not drawn) [para-octopamine]
EC50 [1]: 2 to 20 µM

NCCc1c[nH]c2ccccc12 [tryptamine]
EC50 [1]: 0.4 to 21 µM

NCCc1ccc(O)cc1 [tyramine]
cellular metabolic function, percentage relative to control (live cells) (HEPG2 cell line [2]; Table S4, 0.1 μM): 101% | cellular metabolic function, percentage relative to control (live cells) (HEPG2 cell line [2]; Table S4, 1 μM): 98% | cellular metabolic function, percentage relative to control (live cells) (HEPG2 cell line [2]; Table S4, 10 μM): 97% | cellular metabolic function, percentage relative to control (live cells) (HEPG2 cell line [2]; Table S4, 50 μM): 89% | cellular metabolic function, percentage relative to control (live cells) (HEPG2 cell line [2]; Table S4, 100 μM): 80% | effect on steatosis under TAAR1 blockade (3T3-L1 adipocytes [3]; 10 µM + RTI-7470-44 (40 nM)): abolished | steatosis (neutral lipid accumulation) (3T3-L1 adipocytes [3]; 10 µM, vs vehicle): statistically significant decrease | effect on phospholipidosis under TAAR1 blockade (3T3-L1 adipocytes [4]; 10 µM + RTI-7470-44 (40 nM)): reversed | phospholipidosis (phospholipid accumulation) (3T3-L1 adipocytes [4]; 10 µM, vs vehicle): significantly reduced | membrane integrity, percentage relative to control (death cells) (HEPG2 cell line [5]; 0.1 μM): 8% | membrane integrity, percentage relative to control (death cells) (HEPG2 cell line [5]; 1 μM): 7% | membrane integrity, percentage relative to control (death cells) (HEPG2 cell line [5]; 10 μM): 7% | membrane integrity, percentage relative to control (death cells) (HEPG2 cell line [5]; 50 μM): 8% | membrane integrity, percentage relative to control (death cells) (HEPG2 cell line [5]; 100 μM): 11% | membrane integrity, percentage relative to control (death cells) (3T3L1 cell line; 0.1 μM): 6% | membrane integrity, percentage relative to control (death cells) (3T3L1 cell line; 1 μM): 6% | membrane integrity, percentage relative to control (death cells) (3T3L1 cell line; 10 μM): 6% | membrane integrity, percentage relative to control (death cells) (3T3L1 cell line; 50 μM): 6% | membrane integrity, percentage relative to control (death cells) (3T3L1 cell line; 100 μM): 8% | cellular metabolic function, percentage relative to control (live cells) (3T3-L1 cell line; Table S5, 0.1 μM): 95% | cellular metabolic function, percentage relative to control (live cells) (3T3-L1 cell line; Table S5, 1 μM): 90% | cellular metabolic function, percentage relative to control (live cells) (3T3-L1 cell line; Table S5, 10 μM): 88% | cellular metabolic function, percentage relative to control (live cells) (3T3-L1 cell line; Table S5, 50 μM): 67% | cellular metabolic function, percentage relative to control (live cells) (3T3-L1 cell line; Table S5, 100 μM): 55% | EC50 (human TAAR1): 5.87 ± 0.47 µM | glucose-stimulating effect under TAAR1 blockade (HepG2 cells; 10 µM + RTI-7470-44 (40 nM)): substantially attenuated | increase in glucose consumption (uptake) (HepG2 cells; 10 µM): 32% | lipid-lowering effect under TAAR1 blockade (3T3-L1 cells; 10 µM + RTI-7470-44 (40 nM)): completely abolished | lipid accumulation (intracellular lipid content), reduction (3T3-L1 cells): 33%
